Data: patent publication US11407721B2, “CIS-morpholinone and other compounds as MDM2 inhibitors for the treatment of cancer” (AMGEN INC., priority 2013, dated 2022)
Read-outs that look alike come from different tables or passages of the source.

Legend:
[1] = biological target: interaction between HDM2 and p53 (GST-hMDM2 (1-188) / biotinylated-p53 (1-83)) (Homo sapiens (Human), UniProt Q00987); test: HTRF2 Assay (improved HTRF assay); format: binding; conditions: read-out: HTRF2 IC50
[2] = biological target: T1, interaction between HDM2 and p53 (GST-hMDM2 / biotinylated-p53) (Homo sapiens (Human), UniProt Q00987); conditions: read-out: HTRF3 IC50; HTRF1 conditions except 20 uL GST-hMDM2 incubated with 1.0 ul diluted compound
T1 sequence (Q00987 1-188): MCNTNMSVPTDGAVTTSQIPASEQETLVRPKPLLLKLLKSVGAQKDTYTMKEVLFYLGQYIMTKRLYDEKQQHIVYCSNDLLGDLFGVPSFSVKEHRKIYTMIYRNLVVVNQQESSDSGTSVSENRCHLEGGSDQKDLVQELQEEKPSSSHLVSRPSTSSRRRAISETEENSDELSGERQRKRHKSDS

[3] = biological target: T1, interaction between HDM2 and p53 (GST-hMDM2 / biotinylated-p53); test: biochemical
[4] = biological target: interaction between HDM2 and p53 (GST-hMDM2 aa 1-188 / biotinylated-p53 aa 1-83) (Homo sapiens (Human), UniProt Q00987)
Sequence of interaction between HDM2 and p53 (GST-hMDM2 aa 1-188 / biotinylated-p53 aa 1-83) (Q00987 1-188): as above

[5] = 0.2 nM GST-hMDM2 (1-188), 0.5 nM biotinylated-p53 (1-83), 100 mM KF

Sequence of interaction between HDM2 and p53 (GST-hMDM2 (1-188) / biotinylated-p53 (1-83)) (Q00987 1-188): as above

Compound | IC50 [1, 5] [µM] | IC50 [2] [µM] | IC50 [3] [µM] | IC50 [4] [µM] | IC50 [1] [µM]
CN1C(=O)[C@@H](Cc2ccc(C(N)=O)cc2)O[C@H](c2ccc(Cl)cc2)[C@@H]1c1ccc(Cl)cc1 | 3.66 | 5.8 |  |  | 
CN1C(=O)[C@@H](Cc2cccc(C(N)=O)c2)O[C@H](c2ccc(Cl)cc2)[C@@H]1c1ccc(Cl)cc1 | 7.39 | 12.4 |  |  | 
CS(=O)(=O)OCC[C@H]1O[C@H](c2cccc(Cl)c2)[C@H](c2ccc(Cl)cc2)N(CC2CC2)C1=O | 4.81 | 6.86 |  |  | 
O=C1CS(=O)(=O)[C@@H](c2cccc(Cl)c2)[C@@H](c2ccc(Cl)cc2)N1CC1CC1 [(5R,6S)-6-(3-chlorophenyl)-5-(4-chlorophenyl)-4-(cyclopropylmethyl)-3-thiomorpholinone 1,1-dioxide] | 22.4 |  |  | 4.76 | 
CCC[C@H](C(=O)N1CCN(CCC(=O)O)CC1)N1C(=O)CO[C@@H](c2ccc(Cl)cc2)[C@H]1c1ccc(Cl)cc1 | 3.6 | 4.59 |  |  | 
(2R,5S,6R)-5,6-Bis(4-chlorophenyl)-4-methyl-2-(pyridin-4-ylmethyl)morpholin-3-one and (2S,5R,6S)-5,6-bis(4-chlorophenyl)-4-methyl-2-(pyridin-4-ylmethyl)morpholin-3-one [Example 41] | 4.53 | 5.6 |  |  | 
CCC[C@@H](C(=O)O)N1C(=O)[C@@H](Cc2ccncc2)O[C@H](c2ccc(Cl)cc2)C1c1ccc(Cl)cc1 (mixture of isomers) [Example 42, (S)-2-((2R,3S,6R)-2,3-Bis(4-chlorophenyl)-5-oxo-6-(pyridin-4-ylmethyl)morpholino)pentanoic acid and (R)-2-((2S,3R,6S)-2,3-bis(4-chlorophenyl)-5-oxo-6-(pyridin-4-ylmethyl)morpholino)pentanoic acid] | 0.947 |  | 0.539 |  | 
CCC[C@H](c1nnn[nH]1)N1C(=O)[C@H](Cc2ccc(C#N)c(F)c2)O[C@@H](c2ccc(Cl)cc2)[C@H]1c1ccc(Cl)cc1 [Example 35, 4-(((2S,5R,6S)-4-((R)-1-(1H-Tetrazol-5-yl)butyl)-5,6-bis(4-chlorophenyl)-3-oxomorpholin-2-yl)methyl)-2-fluorobenzonitrile] | 0.473 | 0.403 |  |  | 

Further lines, results first:

IC50 [1, 5] [µM] | IC50 [2] [µM] | IC50 [3] [µM] | IC50 [4] [µM] | IC50 [1] [µM] | Compound
 |  | 38.6 | 11.8 |  | CN1C(=O)CO[C@@H](c2ccc(Cl)cc2)[C@H]1c1ccc(Cl)cc1 (mixture of isomers) [(5R,6S)-5,6-Bis(4-chlorophenyl)-4-methylmorpholin-3-one and (5S,6R)-5,6-bis(4-chlorophenyl)-4-methylmorpholin-3-one]
 |  |  | 1.56 |  | CC(C)N1C(=O)CS(=O)(=O)[C@@H](c2cccc(Cl)c2)[C@H]1c1ccc(Cl)cc1 [(5R,6S)-6-(3-chlorophenyl)-5-(4-chlorophenyl)-4-(1-methylethyl)-3-thiomorpholinone 1,1-dioxide]
7.56 | 2.78 |  |  |  | CN(C)C(=O)C[C@H]1O[C@H](c2cccc(Cl)c2)[C@H](c2ccc(Cl)cc2)N(CC2CC2)C1=O
 |  | 4.64 |  | 3.67 | O=C1[C@H](C[C@H](O)CO)O[C@@H](c2cccc(Cl)c2)[C@@H](c2ccc(Cl)cc2)N1CC1CC1 (racemic) [Example 14, Step B]
4.29 |  | 3.19 |  |  | CCC[C@H](C(N)=O)N1C(=O)CO[C@@H](c2ccc(Cl)cc2)[C@H]1c1ccc(Cl)cc1 [(2R)-2-((2S,3R)-2,3-bis(4-chlorophenyl)-5-oxo-4-morpholinyl)pentanamide]
